Assay results from patent publication US9238637B2, “Stable polymorphic forms of compound as hypoxia mimetics, and uses thereof” (BEIJING BETTA PHARMACEUTICALS CO., LTD, priority 2011, dated 2016).

Tests used:
[1] = Stability determination of crystal forms (slurry in ethyl acetate, XRPD); assay type: physicochemical; details: 72 hrs
Method: (§1) 100 mg of the compound of Formula I prepared from the method disclosed in Example 1 above (mixed crystal forms) was added into 2 mL of Ethyl Acetate and stirred at room temperature for 72 hrs. After centrifugation and drying, the resulted crystal form was determined by XRPD to be purely the Crystalline Form III.
as §1, with “50 mg” for “100 mg”, “into 1” for “into 2”, “at 50° C.” for “at room temperature”

Erythropoietin (EPO) = experiment: Determination of erythropoietin (EPO) induction in normal mice; assay type: in vivo; details: male C57BL/6 mice, oral suspension in 0.5% CMC, 60 mg/kg, serum 6 hours after dosing
Method: Eight-week-old male C57BL/6 mice were dosed orally with a suspension of one crystal form of the compound in 0.5% CMC at 20, 60 and 100 mg/kg. Blood samples were obtained from the orbital venous plexus 6 hours after dosing and serum was collected (see also, Robinson A, et al., Gastroenterology. 2008, 134:145-55; Hsieh M M, et al., Blood. 2007, 110:2140-7). Samples were analyzed for EPO by electrochemiluminescence-based immunoassay (MSD) according to manufacturer's instructions. The inducted EPO when the Crystalline Form III in this invention was used in suspension was determined to be above 35 folds over that of the vehicle group without induction at the dosage of 60 mg/kg.

[2] = system: adenine-induced renal anemic rats; experiment: Efficacy studies in adenine-induced renal anemic rats; assay type: in vivo, Wistar rats
Method: Six-week-old male Wistar rats were divided to the control group and treatment groups. After given the standard chow for 10 days, the control group continued on the standard chow while the treatment groups were given the standard chow with the addition of 0.75% adenine for 30 days when the treatment groups developed anemia. All the groups were then switched back to the standard chow, and the treatment groups were dosed orally with vehicle or a suspension of one crystal form of the compound in 0.5% CMC-Na at 20, 40 or 80 mg/kg once a day for 4 weeks. Blood samples were obtained from the orbital venous plexus on days 0, 5, 12, 19 and 27. An Automated Hematology Analyzer MEK-6318K was used to determine hematological parameters such as erythrocyte counts (RBC), hemoglobin concentration (HGB), hematocrit value (HCT).

full length PHD2 = target: T1, full length PHD2 (Homo sapiens, UniProt Q9GZT9); experiment: Assay of HIF-PHD2 enzyme activity (homogeneous TR-FRET); assay type: biochemical; details: 600 nM full length PHD2, 0.2 μM 2-oxoglutarate, 0.5 μM HIF-1α peptide, 2 hrs room temperature
T1 construct: containing 600 nM full length PHD2
T1 sequence (Q9GZT9 whole entry, species assumed): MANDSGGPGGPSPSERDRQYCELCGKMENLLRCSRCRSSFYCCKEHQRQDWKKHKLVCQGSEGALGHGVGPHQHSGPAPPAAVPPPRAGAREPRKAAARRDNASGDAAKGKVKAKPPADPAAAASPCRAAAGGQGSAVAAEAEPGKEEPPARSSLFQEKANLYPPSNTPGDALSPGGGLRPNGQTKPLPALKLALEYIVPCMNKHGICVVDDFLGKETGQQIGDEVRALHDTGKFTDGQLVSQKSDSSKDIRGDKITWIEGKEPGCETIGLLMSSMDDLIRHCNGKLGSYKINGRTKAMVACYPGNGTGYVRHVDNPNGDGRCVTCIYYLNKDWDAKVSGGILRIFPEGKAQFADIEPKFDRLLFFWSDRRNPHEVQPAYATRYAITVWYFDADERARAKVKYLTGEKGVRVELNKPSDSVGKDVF
Method: HIF-PHD2 activity was measured using homogeneous TR-FRET technology (see also, US2008/004817; Dao J H et al., Anal Biochem. 2009, 384:213-23). To each well of a ½Area 96-well plate was added 2 μL DMSO solution of test compound and 40 μL of assay buffer (50 mM Tris PH7.4/0.01% Tween-20/0.1 mg/ml BSA/1 mM Sodium ascorbate/20 μg/ml Catalase/10 μM FeSO4) containing 600 nM full length PHD2. After a 30 min preincubation at room temperature, the enzymatic reactions were initiated by the addition of 8 μL of substrates (final concentrations of 0.2 μM 2-oxoglutarate and 0.5 μM HIF-1α peptide biotinyl-DLDLEMLAPYIPMDDDFQL). After 2 hrs. at room temperature, the reactions were terminated and signals were developed by the addition of a 50 μL quench/detection mix to a final concentration of 1 mM ortho-phenanthroline, 0.1 mM EDTA, 0.5 nM anti-(His)6LANCE reagent, 100 nM AF647-labeled Streptavidin, and 30 nM (His)6-VHL-elonginB-elonginC complex. The ratio of time resolved fluorescence signals at 665 and 620 nm was determined, and percent inhibition was calculated relative to an uninhibited control sample run in parallel.

Row | IC50 (full length PHD2) | SMILES | thermodynamic stability of crystal form ([1]; 50° C.) | thermodynamic stability of crystal form ([1]; room temperature) | inducted EPO over that of the vehicle group (Erythropoietin (EPO)) | HGB ([2]; 20 mg/kg oral once a day, Day 0) | HGB ([2]; 20 mg/kg oral once a day, Day 5) | HGB ([2]; 20 mg/kg oral once a day, Day 12) | HGB ([2]; 20 mg/kg oral once a day, Day 19) | HGB ([2]; 20 mg/kg oral once a day, Day 27) | HGB ([2]; 40 mg/kg oral once a day, Day 0) | HGB ([2]; 40 mg/kg oral once a day, Day 5) | HGB ([2]; 40 mg/kg oral once a day, Day 12) | HGB ([2]; 40 mg/kg oral once a day, Day 19) | HGB ([2]; 40 mg/kg oral once a day, Day 27) | HGB ([2]; 80 mg/kg oral once a day, Day 0) | HGB ([2]; 80 mg/kg oral once a day, Day 5) | HGB ([2]; 80 mg/kg oral once a day, Day 12) | HGB ([2]; 80 mg/kg oral once a day, Day 19) | HGB ([2]; 80 mg/kg oral once a day, Day 27) | effect on HGB levels (in words) ([2]; 20, 40 or 80 mg/kg oral once a day for 4 weeks)
1 |  | Cc1cccc(-c2cccc3c(O)c(C(=O)NCC(=O)O)c(=O)oc23)c1 [Crystalline Form III, N-[(4-hydroxy-2-oxo-8-(3-methyl-phenyl)-2H-3-coloralkenyl)carbonyl]glycine] | thermodynamically the more stable crystal form | thermodynamically the more stable crystal form | above 35 folds | 88.0 g/L | 60.7 g/L | 64.3 g/L | 73.3 g/L | 90.7 g/L | 87.4 g/L | 69.4 g/L | 87.2 g/L | 89.7 g/L | 103.6 g/L | 86.8 g/L | 76.7 g/L | 111.0 g/L | 122.0 g/L | 139.0 g/L | improved the HGB levels in the animals and corrected them toward normal
2 | ~150 nM | Cc1cccc(-c2cccc3c(O)c(C(=O)NCC(=O)O)c(=O)oc23)c1 [compound of Formula I, N-[(4-hydroxy-2-oxo-8-(3-methyl-phenyl)-2H-3-coloralkenyl)carbonyl]glycine] |  |  |  |  |  |  |  |  |  |  |  |  |  |  |  |  |  |  | 
